The values that follow come from article PMC7607171, “Optimized low‐dose combinatorial drug treatment boosts selectivity and efficacy of colorectal carcinoma treatment” (Molecular Oncology, 2020).

Structures are written as SMILES. Read-outs that look alike come from different tables or passages of the source.

Data set [1] in a line: Pharmacokinetics, dried blood spot LC-MS/MS, mice with DLD1 tumors. Type of data set: in vivo. The settings on record: for Tmax / AUC(0-t) / Cmax: Swiss Nu/nu, mouse, whole blood (dried blood spot), po, regorafenib 15, erlotinib 12.5, selumetinib 5, vemurafenib 75 mg/kg; for AUC(0-t) / Cmax: whole blood, mean ± SD; for AUC(0-t): oral, read-out: AUC0-24h; for increase of AUC as part of the ODC vs single-drug treatment: mice with DLD1 tumors, AUC0-24h. As to the method: The pharmacokinetic (PK) study was performed using the dried blood spot method. Mice were treated with CTRL, ODCs, and corresponding monotherapies as described above. To determine the disposition in blood in the first 24h, blood samples (5 µL/mouse) were collected from the tail vein (n = 4 mice) at 2h, 4h, 8h, and 24h time points and transferred onto paper (a filter paper 903 protein saver card from Whatman (MA, USA)). A disk with the entire spot was punched from the paper card and transferred to the HPLC vial tube. Hundred µL of MeOH containing a mix of internal standards was added, and the tube was vortex‐mixed for about 1 min before injecting 10 µL into the LC‐MS/MS system. The LC‐MS/MS system consisted of an API 4,000 triple quadrupole mass spectrometer (AB sciex, Concord, ON, Canada) controlled by analyst 1.6.1 software. The mass spectrometer was operated in the multiple reaction monitoring (MRM) mode with positive electrospray ionization. The instrument was coupled with an Agilent series 1100 (Waldbronn, Germany) LC system. Chromatography was performed on a Phenomenex Kinetex C18 analytical column (50 mm x 2.1 mm, 2.6 um; Torrance, CA, USA). The flow rate was 0.5 mL/min using gradient elution conditions. The method was fully validated before application to this pharmacokinetic study.

The nature of data set [2]: Serum and intratumor drug concentration at experimental endpoint, DLD1 model. The conditions noted are these: for concentration at 1 h / Kp at 1 h: Swiss Nu/nu, mouse, oral; for concentration at 1 h: 1h post-treatment at endpoint (day 15); for Kp at 1 h: tumor vs serum, read-out: ratio tumor vs serum; for Kp at 1 h / ratio ODC vs single drug: DLD1 model. Type of data set: in vivo, mice. As to the method: (§1) At the experimental endpoint, plasma and tumors were collected 1h post‐treatment and part of the tumor tissue was used to determine the intratumor drug concentrations. Plasma and tumor samples were analyzed using the same LC‐MS/MS method used for drug determination in DBS. Before analysis, tumor tissues were homogenized in a 1 mL mixture of water/acetonitrile (30/70). Hundred uL of homogenates were transferred into new tubes and 50 µL of acetonitrile, as well as 50 µL of a mix of internal standards in MeOH were added. Tubes were vortexed and centrifuged for 10 min at 9,000 rpm. The supernatant (100 µL) was evaporated under nitrogen and reconstituted in 100 µL of acetonitrile with 0.1% formic acid/water with 0.1% formic acid (30/70). 10 µL was then injected into the LC‐MS/MS system. Plasma samples were spotted onto the same paper used for whole blood analysis and were extracted and analyzed using the same methods as used for DBS.

The nature of data set [3]: Serum and intratumor drug concentration at experimental endpoint, SW620 model. The conditions noted are these: for concentration at 1 h / Kp at 1 h: Swiss Nu/nu, mouse, oral; for concentration at 1 h: 1h post-treatment at endpoint (day 19); for Kp at 1 h: tumor vs serum, read-out: ratio tumor vs serum; for Kp at 1 h / ratio ODC vs single drug: SW620 model. The data set is classed as in vivo, mice. As to the method: as §1

Another data set concerns HCT116 cells. Description: Tunneling nanotubule (TNT) quantification, F-actin/DAPI staining. The data set is classed as cell-based, human.
The conditions of data set [4]: 0-24h, oral, cited from earlier work.
The test system of a further data set is SW620 cells. Description: CellTiter-Glo metabolic ATP activity assay, 2D culture. Type of data set: cell-based, human. The settings on record: low-dose single drug (hormetic dose effect). On the procedure: Drugs were dissolved in DMSO and stored at −80, and aliquots were thawn prior to each use. Drugs were dissolved at concentrations resulting in in vitro experimental conditions 0.15% DMSO maximum in the culture medium. […] The 48‐hour retreatment was performed by adding another volume of media containing a 1x concentration of drugs to not affect the final concentration in the wells.
Drug treatment activity in 2D and 3D cultures was measured using the CellTiter‐Glo® cell metabolic activity (ATP) assays (G7572 and G9683, Promega, Madison, WI, USA), according to the manufacturer`s instructions. Assay bioluminescence was detected using the BioTek Cytation 3 and corresponding Gen5 Image software version 3.04 at standard settings.
The next step is the drug combination screening in Search 1 (11 drugs in 155 combinations) according to the OACD resolution IV matrix and performed in the CRC and the nonmalignant CCD841CoN cell simultaneously. The resulting output of the drug combination activity was measured in cell metabolic activity (ATP levels, % CTRL) to represent cell viability and consisted of the average of technical triplicate values. The experimental data points are then used for step‐wise second‐order linear regression analysis by Matlab®. This model mathematically describes the relationship between the drug combination input and output activity of each possible two‐drug combination. […]

The mark [5] stands for this setting: given as part of DLD1-specific ODC.
[6] abbreviates: serum, as part of ODC, regorafenib 15, erlotinib 12.5, selumetinib 5, vemurafenib 75 mg/kg, read-out: concentration serum.
[7] abbreviates: serum, single drug, regorafenib 15, erlotinib 12.5, selumetinib 5, vemurafenib 75 mg/kg, read-out: concentration serum.
Setting [8] is: tumor (DLD1), as part of ODC, DLD1 tumor, doses as E156, read-out: concentration tumor.
Where [9] appears, read: tumor (DLD1), single drug, DLD1 tumor, doses as E156, read-out: concentration tumor.
[10] abbreviates: serum, as part of ODC, regorafenib 30, selumetinib 0.2, vemurafenib 75, GDC-0994 10 mg/kg, read-out: concentration serum.
[11] abbreviates: serum, single drug, regorafenib 30, selumetinib 0.2, vemurafenib 75, GDC-0994 10 mg/kg, read-out: concentration serum.
The mark [12] stands for this setting: tumor (SW620), as part of ODC, SW620 tumor, doses as E164, read-out: concentration tumor.
Where [13] appears, read: tumor (SW620), single drug, SW620 tumor, doses as E164, read-out: concentration tumor.

What is called Tmax is the time from dosing to the highest level. What is called Cmax is the highest concentration seen after dosing. Regarding `Cn1cnc2c(F)c(Nc3ccc(Br)cc3Cl)c(C(=O)NOCCO)cc21` [selumetinib], the Tmax in data set [1] (setting [5]) and in data set [1] (mono) was 2 h each time. Further, the values for the AUC(0-t) in data set [1] (setting [5]) and in data set [1] (mono) were 24800 ± 8250 ng·h/mL and 15200 ± 7590 ng·h/mL, respectively. Moreover, the Cmax in data set [1] (setting [5]) stood at 3830 ± 1640 ng/mL; in data set [1] (mono), 1220 ± 330 ng/mL. Also, the “increase of AUC as part of the ODC vs single-drug treatment” value (“increase of AUC as part of the ODC” below) in data set [1] is on record as 1.6 x. Moreover, the concentration at 1 h in data set [2] (setting [6]) was determined as 3490 ± 900 ng/mL; in data set [2] (setting [7]), 2500 ± 1080 ng/mL; in data set [2] (setting [8]), 4530 ± 1950 ng/g; in data set [2] (setting [9]), 1980 ± 660 ng/g; in data set [3] (setting [10]), 280 ± 200 ng/mL; in data set [3] (setting [11]), 410 ± 350 ng/mL. The results for the concentration at 1 h in data set [3] (setting [12]) and in data set [3] (setting [13]) were 220 ± 100 ng/g and 560 ± 90 ng/g, respectively. Besides, the Kp at 1 h in data set [2] (as part of ODC) was found to be 1.3; in data set [2] (single drug), 0.79; in data set [3] (as part of ODC), 0.77; in data set [3] (single drug), 1.39.

As a reminder, the AUC is the area under the concentration-time curve, a measure of exposure. Regarding `CCCS(=O)(=O)Nc1ccc(F)c(C(=O)c2c[nH]c3ncc(-c4ccc(Cl)cc4)cc23)c1F` [vemurafenib], the Tmax was 4 h in data set [1] (setting [5]) and 2 h in data set [1] (mono). In addition, the AUC(0-t) is 14400 ± 2740 ng·h/mL in data set [1] (setting [5]) and 2180 ± 220 ng·h/mL in data set [1] (mono). Also, the Cmax in data set [1] (setting [5]) came to 1050 ± 360 ng/mL; in data set [1] (mono) it was 270 ± 80 ng/mL. Further, the “increase of AUC as part of the ODC” value in data set [1] came out at 6.6 x. In addition, the “cells forming tunneling nanotubules (TNTs, > 10 µm)” value with HCT116 cells (single drug (CTRL 9.5%)) was found to be 14.0%. The TNT length in the data set on HCT116 cells (single drug (CTRL 21 µm), nonsignificant) was 32 µm. The concentration at 1 h in data set [2] (setting [6]) stood at 910 ± 380 ng/mL; in data set [2] (setting [7]) it was 620 ng/mL; in data set [2] (setting [8]), 1650 ± 1000 ng/g; in data set [2] (setting [9]), 790 ng/g; in data set [3] (setting [10]), 1770 ± 770 ng/mL; in data set [3] (setting [11]) it was 1960 ± 1050 ng/mL. For the same compound, the concentration at 1 h in data set [3] (setting [12]) worked out at 890 ± 530 ng/g. In addition, the Kp at 1 h in data set [2] (as part of ODC) worked out at 1.81; in data set [2] (single drug) it was 1.28; in data set [3] (as part of ODC) it was 0.5; in data set [3] (single drug) it was 0.48. In addition, the “ratio ODC vs single drug” value in data set [2] (serum) came to 1.48; in data set [2] (tumor) it was 2.09; in data set [3] (serum), 0.90; in data set [3] (tumor), 0.95. For the same compound, the AUC was 131000 ng·h/mL in data set [4] (960 mg/kg twice daily) and 21100 ng·h/mL in data set [4] (960 mg/kg twice daily, ref EPAR 002409). Besides, the “effect on cell viability” value in the data set with SW620 cells is recorded as “increased cell viability”.

Turning to `CNC(=O)c1cc(Oc2ccc(NC(=O)Nc3ccc(Cl)c(C(F)(F)F)c3)c(F)c2)ccn1` [regorafenib], the figures for the Tmax in data set [1] (setting [5]) and in data set [1] (mono) were 4 h and 8 h, respectively. Further, the AUC(0-t) was 49400 ± 2980 ng·h/mL in data set [1] (setting [5]) and 17500 ± 5790 ng·h/mL in data set [1] (mono). For the same compound, the Cmax is 3380 ± 490 ng/mL in data set [1] (setting [5]) and 1190 ± 690 ng/mL in data set [1] (mono). Also, the “increase of AUC as part of the ODC” value in data set [1] came to 2.8 x. Also, the concentration at 1 h stood at 1830 ± 540 ng/mL in data set [2] (setting [6]); 880 ± 250 ng/mL in data set [2] (setting [7]); 8670 ± 5530 ng/g in data set [2] (setting [8]); 1540 ± 680 ng/g in data set [2] (setting [9]); 6600 ± 2800 ng/mL in data set [3] (setting [10]); 2220 ± 70 ng/mL in data set [3] (setting [11]). Besides, the concentration at 1 h in data set [3] (setting [12]) was found to be 1820 ± 770 ng/g; in data set [3] (setting [13]), 1330 ± 230 ng/g. The Kp at 1 h was 4.74 in data set [2] (as part of ODC), 1.76 in data set [2] (single drug), 0.28 in data set [3] (as part of ODC) and 0.6 in data set [3] (single drug). For the same compound, the “ratio ODC vs single drug” value in data set [2] (serum) is 2.09; in data set [2] (tumor), 5.62; in data set [3] (serum), 2.97; in data set [3] (tumor) it was 1.37. Also, the exposure (AUC) in data set [4] (160 mg/kg, 3 wk on/ 1 wk off, ref 12) is 50260 ng·h/mL; in data set [4] (160 mg/kg, 3 wk on/ 1 wk off, ref 13) it was 58300 ng·h/mL.
